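Assay format: 96-well plates, 48-hour exposure. GI50 = concentration required for 50% inhibition of growth.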 The source made the active and inactive calls. No stated cut-off is given here; in the data, active = GI50 up to about 1.1 µM and inactive = higher. Non-standard residues stand in square brackets, D forms with d. Residues, ends and D or L forms follow the SMILES beside them. ξ: configuration not given here. *: point of attachment. dThr(3ξ) = CC(O)[C@@H](N)C(=O)O; dNMeL = CN[C@H](CC(C)C)C(=O)O; OBn = c1ccc(CO*)cc1; ξLac = CC(O)C(=O)O
Tests used:
Test in all cases: NCI tumour cell line growth inhibition, 48 h
K562 = test system: K562
NCI-H226 = test system: NCI-H226
SR = test system: SR
LXFL 529 = test system: LXFL 529
HCC 2998 = test system: HCC 2998
NCI-H522 = test system: NCI-H522
UACC-62 = test system: UACC-62
U-251 = test system: U-251
HCT-116 = test system: HCT-116
OVCAR-8 = test system: OVCAR-8
DLD-1 = test system: DLD-1
TK-10 = test system: TK-10
HOP-62 = test system: HOP-62
KM12 = test system: KM12
SNB-19 = test system: SNB-19
CCRF-CEM = test system: CCRF-CEM
RPMI-8226 = test system: RPMI-8226
OVCAR-5 = test system: OVCAR-5
HOP-92 = test system: HOP-92
SK-MEL-28 = test system: SK-MEL-28
IGROV-1 = test system: IGROV-1
SW-620 = test system: SW-620
NCI-H460 = test system: NCI-H460
M19-MEL = test system: M19-MEL
UACC-257 = test system: UACC-257
SF-268 = test system: SF-268
HT-29 = test system: HT-29
MOLT-4 = test system: MOLT-4
ACHN = test system: ACHN
OVCAR-3 = test system: OVCAR-3
SK-OV-3 = test system: SK-OV-3
COLO 205 = test system: COLO 205
SF-539 = test system: SF-539
HL-60 = test system: HL-60
SF-295 = test system: SF-295
NCI-H23 = test system: NCI-H23
SNB-75 = test system: SNB-75
A549 = test system: A549
SK-MEL-5 = test system: SK-MEL-5
UO-31 = test system: UO-31
SN12C = test system: SN12C
KM-20L2 = test system: KM-20L2
HCT-15 = test system: HCT-15
M14 = test system: M14
LOX IMVI = test system: LOX IMVI
SK-MEL-2 = test system: SK-MEL-2
786-0 = test system: 786-0
XF498 = test system: XF498
Malme-3M = test system: Malme-3M
OVCAR-4 = test system: OVCAR-4
EKVX = test system: EKVX
MCF7 = test system: MCF7
MDA-N = test system: MDA-N
BT-549 = test system: BT-549
RXF 393 = test system: RXF 393
PC-3 = test system: PC-3
DU-145 = test system: DU-145
MDA-MB-435 = test system: MDA-MB-435
NCI/ADR-RES = test system: NCI/ADR-RES
A498 = test system: A498
Hs-578T = test system: Hs-578T
MDA-MB-231 = test system: MDA-MB-231
T47D = test system: T47D
CAKI-1 = test system: CAKI-1

## COc1ccc(/C=N/n2cnc3c(sc(=S)n3-c3ccccc3)c2=O)cc1
K562
  GI50: 15.8 µM (inactive)
NCI-H226
  GI50: 18.3 µM (inactive)
SR
  GI50: 29.2 µM (inactive)
LXFL 529
  GI50: 16.9 µM (inactive)
HCC 2998
  GI50: 23.9 µM (inactive)
NCI-H522
  GI50: 13.5 µM (inactive)
UACC-62
  GI50: 16.7 µM (inactive)
U-251
  GI50: 23.2 µM (inactive)
HCT-116
  GI50: > 100 µM (inactive)
OVCAR-8
  GI50: 26.5 µM (inactive)
DLD-1
  GI50: 26.8 µM (inactive)
TK-10
  GI50: 25.3 µM (inactive)
HOP-62
  GI50: 12.2 µM (inactive)
KM12
  GI50: > 100 µM (inactive)
SNB-19
  GI50: 17.7 µM (inactive)
CCRF-CEM
  GI50: 18.3 µM (inactive)
RPMI-8226
  GI50: 16.4 µM (inactive)
OVCAR-5
  GI50: 1.68 µM (inactive)
HOP-92
  GI50: 4.43 µM (inactive)
SK-MEL-28
  GI50: 13.2 µM (inactive)
IGROV-1
  GI50: 37 µM (inactive)
SW-620
  GI50: 99.3 µM (inactive)
NCI-H460
  GI50: 35.8 µM (inactive)
M19-MEL
  GI50: 33.2 µM (inactive)
UACC-257
  GI50: 23.6 µM (inactive)
SF-268
  GI50: 6.28 µM (inactive)
HT-29
  GI50: 24.5 µM (inactive)
MOLT-4
  GI50: 20.4 µM (inactive)
ACHN
  GI50: 27.6 µM (inactive)
OVCAR-3
  GI50: 14.9 µM (inactive)
SK-OV-3
  GI50: 13.2 µM (inactive)
COLO 205
  GI50: 50.8 µM (inactive)
SF-539
  GI50: 12.8 µM (inactive)
HL-60
  GI50: 12.5 µM (inactive)
SF-295
  GI50: 10 µM (inactive)
NCI-H23
  GI50: 23.6 µM (inactive)
SNB-75
  GI50: 2.47 µM (inactive)
A549
  GI50: 45.5 µM (inactive)
SK-MEL-5
  GI50: 24.7 µM (inactive)
UO-31
  GI50: 40.4 µM (inactive)

## N#Cc1ccccc1NC(=O)/C(=N\N)C(C(=O)c1ccncc1)C1OC(=O)c2ccccc21 (stereo not drawn)
K562
  GI50: > 100 µM (inactive)
NCI-H226
  GI50: > 100 µM (inactive)
SR
  GI50: > 100 µM (inactive)
LXFL 529
  GI50: > 100 µM (inactive)
HCC 2998
  GI50: > 100 µM (inactive)
NCI-H522
  GI50: > 100 µM (inactive)
UACC-62
  GI50: > 100 µM (inactive)
U-251
  GI50: > 100 µM (inactive)
HCT-116
  GI50: > 100 µM (inactive)
OVCAR-8
  GI50: > 100 µM (inactive)
SN12C
  GI50: > 100 µM (inactive)
TK-10
  GI50: > 100 µM (inactive)
HOP-62
  GI50: > 100 µM (inactive)
KM12
  GI50: > 100 µM (inactive)
SNB-19
  GI50: > 100 µM (inactive)
CCRF-CEM
  GI50: > 100 µM (inactive)
RPMI-8226
  GI50: > 100 µM (inactive)
OVCAR-5
  GI50: > 100 µM (inactive)
KM-20L2
  GI50: > 100 µM (inactive)
HCT-15
  GI50: > 100 µM
HOP-92
  GI50: > 100 µM (inactive)
SK-MEL-28
  GI50: > 100 µM (inactive)
IGROV-1
  GI50: > 100 µM (inactive)
SW-620
  GI50: > 100 µM (inactive)
NCI-H460
  GI50: > 100 µM (inactive)
M19-MEL
  GI50: > 100 µM (inactive)
UACC-257
  GI50: > 100 µM (inactive)
M14
  GI50: > 100 µM (inactive)
SF-268
  GI50: > 100 µM (inactive)
HT-29
  GI50: > 100 µM (inactive)
MOLT-4
  GI50: > 100 µM (inactive)
ACHN
  GI50: > 100 µM (inactive)
OVCAR-3
  GI50: > 100 µM (inactive)
SK-OV-3
  GI50: > 100 µM (inactive)
COLO 205
  GI50: > 100 µM (inactive)
LOX IMVI
  GI50: > 100 µM (inactive)
SF-539
  GI50: > 100 µM (inactive)
SK-MEL-2
  GI50: > 100 µM (inactive)
786-0
  GI50: > 100 µM (inactive)
XF498
  GI50: > 100 µM (inactive)
Malme-3M
  GI50: > 100 µM (inactive)
HL-60
  GI50: > 100 µM (inactive)
SF-295
  GI50: > 100 µM (inactive)
NCI-H23
  GI50: > 100 µM (inactive)
OVCAR-4
  GI50: > 100 µM (inactive)
A549
  GI50: > 100 µM (inactive)
SK-MEL-5
  GI50: > 100 µM (inactive)
EKVX
  GI50: > 100 µM (inactive)
UO-31
  GI50: > 100 µM (inactive)

## CC(=O)OC(C)[C@@H](NC(=O)[C@@H](CC(C)C)N(C)C(=O)[C@@H]1CCCN1C(=O)C(C)O)C(=O)OCc1ccccc1 (stereo partly drawn) (H-[ξLac]P[dNMeL][dThr(3ξ)](Ac)-OBn)
MCF7
  GI50: > 100 µM (inactive)
K562
  GI50: > 100 µM (inactive)
MDA-N
  GI50: > 100 µM (inactive)
NCI-H226
  GI50: > 100 µM (inactive)
SR
  GI50: > 100 µM (inactive)
HCC 2998
  GI50: > 100 µM (inactive)
NCI-H522
  GI50: > 100 µM (inactive)
UACC-62
  GI50: > 100 µM (inactive)
BT-549
  GI50: > 100 µM (inactive)
U-251
  GI50: > 100 µM (inactive)
HCT-116
  GI50: > 100 µM (inactive)
OVCAR-8
  GI50: > 100 µM (inactive)
SN12C
  GI50: > 100 µM (inactive)
RXF 393
  GI50: > 100 µM (inactive)
TK-10
  GI50: > 100 µM (inactive)
HOP-62
  GI50: > 100 µM (inactive)
KM12
  GI50: > 100 µM (inactive)
SNB-19
  GI50: > 100 µM (inactive)
CCRF-CEM
  GI50: > 100 µM (inactive)
RPMI-8226
  GI50: > 100 µM (inactive)
OVCAR-5
  GI50: > 100 µM (inactive)
HCT-15
  GI50: > 100 µM
HOP-92
  GI50: > 100 µM (inactive)
SK-MEL-28
  GI50: > 100 µM (inactive)
IGROV-1
  GI50: > 100 µM (inactive)
PC-3
  GI50: > 100 µM (inactive)
SW-620
  GI50: > 100 µM (inactive)
DU-145
  GI50: > 100 µM (inactive)
NCI-H460
  GI50: > 100 µM (inactive)
UACC-257
  GI50: > 100 µM (inactive)
MDA-MB-435
  GI50: > 100 µM (inactive)
M14
  GI50: > 100 µM (inactive)
SF-268
  GI50: > 100 µM (inactive)
HT-29
  GI50: > 100 µM (inactive)
MOLT-4
  GI50: > 100 µM (inactive)
NCI/ADR-RES
  GI50: > 100 µM (inactive)
ACHN
  GI50: > 100 µM (inactive)
OVCAR-3
  GI50: > 100 µM (inactive)
SK-OV-3
  GI50: > 100 µM (inactive)
COLO 205
  GI50: > 100 µM (inactive)
LOX IMVI
  GI50: > 100 µM (inactive)
SF-539
  GI50: > 100 µM (inactive)
SK-MEL-2
  GI50: > 100 µM (inactive)
786-0
  GI50: > 100 µM (inactive)
A498
  GI50: > 100 µM (inactive)
Malme-3M
  GI50: > 100 µM (inactive)
HL-60
  GI50: > 100 µM (inactive)
SF-295
  GI50: > 100 µM (inactive)
NCI-H23
  GI50: > 100 µM (inactive)
OVCAR-4
  GI50: 62.4 µM (inactive)
Hs-578T
  GI50: > 100 µM (inactive)
MDA-MB-231
  GI50: > 100 µM (inactive)
T47D
  GI50: > 100 µM (inactive)
SNB-75
  GI50: 81.7 µM (inactive)
A549
  GI50: > 100 µM (inactive)
SK-MEL-5
  GI50: > 100 µM (inactive)
EKVX
  GI50: > 100 µM (inactive)
CAKI-1
  GI50: > 100 µM (inactive)
UO-31
  GI50: > 100 µM (inactive)

Source: ChEMBL document CHEMBL1201862, “PubChem BioAssay data set” (2004)
